# Experimental data as given in patent US20250340538A1, “IMIDAZOLONE DERIVATIVES AS INHIBITORS OF PROTEIN KINASES IN PARTICULAR DYRK1A, CLK1 AND/OR CLK4” (PERHA PHARMACEUTICALS, priority 2021, published 2025).
# Like-named read-outs stand apart in the source and are kept apart here.
# Legend:
# Format in all cases: biochemical
# [1] = molecular target: T1, CLK1 (Homo sapiens, UniProt P49759); assay: Radiometric protein kinase assay (33PanQinase Activity Assay), CLK1; conditions: read-out: Potency Class CLK1
# T1 construct: GST-fusion or His-tag (not specified per kinase); purchased ProQinase GmbH; host or cells: Sf9 insect cells or E. coli (not specified per kinase)
# In short: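 Semi-log compound dilutions, ten final concentrations between 10 μM and 30 nM, went into reactions containing [γ-33P]-ATP and recombinant human enzyme with substrate. After 60 minutes at 30 °C the reaction was stopped with phosphoric acid, and radiolabel incorporation gave IC50 values.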
# [2] = molecular target: T2, CLK2 (Homo sapiens, UniProt P49760); assay: Radiometric protein kinase assay (33PanQinase Activity Assay), CLK2; conditions: read-out: IC50 on CLK2 (most potent CLK2 inhibitors)
# T2 construct: GST-fusion or His-tag (not specified per kinase); purchased ProQinase GmbH; host or cells: Sf9 insect cells or E. coli (not specified per kinase)
# Method: (§1) Assays were performed by ProQinase GmbH (Engesserstr. 4, D-79108 Freiburg, Germany. www.proqinase.com). The IC50 profile of all compounds was determined using 12 protein kinases (CDK2/cyclin E, CK1ε, CLK1, 2, 3, 4, DYRK1A, 1B, 2, 3, 4, GSK3β).
# (§2) The compounds were provided as […] in 100% DMSO. Prior to testing, the 1 μM stock solutions were subjected to a serial, semi-logarithmic dilution using 100% DMSO as a solvent. […] In the process, 90 μl H2O were added to each well of each compound dilution plate. To minimize potential precipitation, the H2O was added to each plate only a few minutes before the transfer of the compound solutions into the assay plates. The plate was shaken thoroughly, resulting in a compound dilution plate/10% DMSO.
# (§3) For the assays (see below), 5 μL solution from each well of the compound dilution plates/10% DMSO were transferred into the assay plates. The final volume of the assay was 50 μL. All compounds were tested at 10 final assay concentrations in the range from 10 μM to 30 nM. The final DMSO concentration in the reaction cocktails was 1% in all cases.
# (§4) All protein kinases provided by ProQinase were expressed in Sf9 insect cells or in E. coli as recombinant GST-fusion proteins or His-tagged proteins, either as full-length or enzymatically active fragments. All kinases were produced from human cDNAs and purified by either GSH-affinity chromatography or immobilized metal. Affinity tags were removed from a number of kinases during purification. The purity of the protein kinases was examined by SDS-PAGE/Coomassie staining, the identity was checked by mass spectroscopy.
# (§5) A radiometric protein kinase assay (33PanQinase® Activity Assay) was used for measuring the kinase activity of the 12 protein kinases. All kinase assays were performed in 96-well FlashPlates™ from PerkinElmer (Boston, MA, USA) in a 50 μL reaction volume. The reaction cocktail was pipetted in four steps in the following order: • 25 μL of assay buffer (standard buffer/[γ-^33P]-ATP), • 10 μL of ATP solution (in H2O), • 5 μL of test compound (in 10% DMSO), • 10 μL of enzyme/substrate mixture.
# (§6) The reaction cocktails were incubated at 30° C. for 60 minutes. The reaction was stopped with 50 μL of 2% (v/v) H3PO4, plates were aspirated and washed two times with 200 μL 0.9% (w/v) NaCl. Incorporation of ^33Pi was determined with a microplate scintillation counter (Microbeta, Wallac). The IC50 values for all compounds were calculated from the dose response curves
# (§7) As a parameter for assay quality, the Z′-factor (Zhang et al., J. Biomol. Screen. 2: 67-73, 1999) for the low and high controls of each assay plate (n=8) was used. ProQinase's criterion for repetition of an assay plate is a Z′-factor below 0.4 (Iversen et al., J. Biomol. Screen. 3: 247-252, 2006).
# [3] = molecular target: T3, DYRK1A (Homo sapiens, UniProt Q13627); assay: Radiometric protein kinase assay (33PanQinase Activity Assay), DYRK1A; conditions: for IC50: read-out: Potency Class DYRK1A; for Selectivity Class DYRK1A vs. CLK1: ratio of IC50 on CLK1 over IC50 on DYRK1A; for Selectivity Class DYRK1A vs. DYRK1B: ratio of IC50 on DYRK1B over IC50 on DYRK1A
# T3 construct: GST-fusion or His-tag (not specified per kinase); purchased ProQinase GmbH; host or cells: Sf9 insect cells or E. coli (not specified per kinase)
# In short: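 Recombinant human kinase, expressed in Sf9 or E. coli, in a radiometric [γ-33P]-ATP assay at 30 °C for 60 min. Compounds tested at 10 concentrations from 10 μM to 30 nM, 1% DMSO final. 33Pi incorporation measured by scintillation counting; IC50 from dose-response curves.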
# [4] = molecular target: T4, CLK4 (Homo sapiens, UniProt Q9HAZ1); assay: Radiometric protein kinase assay (33PanQinase Activity Assay), CLK4; conditions: read-out: IC50 on CLK4 (most potent CLK4 inhibitors)
# T4 construct: GST-fusion or His-tag (not specified per kinase); purchased ProQinase GmbH; host or cells: Sf9 insect cells or E. coli (not specified per kinase)
# Method: as §1, §2, §3, §4, §5, §6, §7
# [5] = class by IC50 on CLK1, from dose-response curves
# [6] = class by IC50 on DYRK1A, from dose-response curves
# T1 sequence (P49759 whole entry, the tested form may be a part): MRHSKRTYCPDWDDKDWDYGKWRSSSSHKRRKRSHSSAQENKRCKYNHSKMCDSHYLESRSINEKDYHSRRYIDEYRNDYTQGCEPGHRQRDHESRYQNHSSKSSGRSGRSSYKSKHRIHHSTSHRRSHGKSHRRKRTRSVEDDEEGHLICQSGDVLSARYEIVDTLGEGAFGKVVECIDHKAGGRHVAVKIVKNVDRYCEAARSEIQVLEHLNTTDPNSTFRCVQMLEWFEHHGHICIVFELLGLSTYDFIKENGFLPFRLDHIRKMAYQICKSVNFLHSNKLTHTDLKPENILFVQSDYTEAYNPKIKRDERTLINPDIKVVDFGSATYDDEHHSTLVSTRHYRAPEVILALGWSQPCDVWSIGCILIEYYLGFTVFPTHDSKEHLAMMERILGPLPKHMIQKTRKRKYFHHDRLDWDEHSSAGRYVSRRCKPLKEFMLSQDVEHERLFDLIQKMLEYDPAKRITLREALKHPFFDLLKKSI
# T2 sequence (P49760 whole entry, the tested form may be a part): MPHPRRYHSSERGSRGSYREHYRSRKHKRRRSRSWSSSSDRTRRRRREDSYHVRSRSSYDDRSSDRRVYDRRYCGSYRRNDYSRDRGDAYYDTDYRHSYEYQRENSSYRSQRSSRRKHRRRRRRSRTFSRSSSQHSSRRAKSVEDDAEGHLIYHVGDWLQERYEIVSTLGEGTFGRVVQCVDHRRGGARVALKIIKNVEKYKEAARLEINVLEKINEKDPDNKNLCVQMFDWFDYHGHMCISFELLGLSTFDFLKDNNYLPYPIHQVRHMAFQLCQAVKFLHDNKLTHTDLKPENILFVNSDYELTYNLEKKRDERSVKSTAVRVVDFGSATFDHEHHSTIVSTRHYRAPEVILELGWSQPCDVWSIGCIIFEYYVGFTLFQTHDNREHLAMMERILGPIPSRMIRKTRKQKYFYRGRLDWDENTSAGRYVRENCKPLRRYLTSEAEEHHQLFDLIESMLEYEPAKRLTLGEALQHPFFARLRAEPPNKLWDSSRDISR
# T4 sequence (Q9HAZ1 whole entry, the tested form may be a part): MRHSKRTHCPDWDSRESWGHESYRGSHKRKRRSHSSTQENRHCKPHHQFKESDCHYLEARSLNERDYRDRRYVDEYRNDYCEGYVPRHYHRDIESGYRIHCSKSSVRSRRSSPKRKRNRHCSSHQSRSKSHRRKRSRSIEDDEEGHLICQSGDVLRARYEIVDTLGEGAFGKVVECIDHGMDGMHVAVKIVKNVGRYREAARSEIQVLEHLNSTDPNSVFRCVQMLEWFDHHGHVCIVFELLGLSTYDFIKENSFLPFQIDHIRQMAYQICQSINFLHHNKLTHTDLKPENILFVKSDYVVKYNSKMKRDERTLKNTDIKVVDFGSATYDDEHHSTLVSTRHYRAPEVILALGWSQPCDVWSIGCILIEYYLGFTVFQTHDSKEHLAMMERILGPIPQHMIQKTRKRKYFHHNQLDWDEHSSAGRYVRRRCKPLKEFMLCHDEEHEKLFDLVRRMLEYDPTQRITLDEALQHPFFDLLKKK
SMILES,"IC50 [1, 5] [nM]",IC50 [2] [nM],"IC50 [3, 6] [nM]",Selectivity Class DYRK1A vs. CLK1 [3],Selectivity Class DYRK1A vs. DYRK1B [3],IC50 ([1]; IC50 class A to E) [nM],IC50 [4] [nM],IC50 ([3]; IC50 class A to E) [nM]
"O=C1NC(NC23CC4CC(CC(C4)C2)C3)=N/C1=C\c1ccc2nccnc2c1 [Compound 17, (4Z)-2-(1-adamantylamino)-4-(quinoxalin-6-ylmethylene)-1H-imidazol-5-one]",25 to 50,≤ 100,10 to 25,II (ratio between 2 and 10 fold),II (ratio between 2 and 10 fold),,,
"O=C1NC(NC23CC4CC(CC(C4)C2)C3)=N/C1=C\c1ccc2ncncc2c1 [Compound 68, (4Z)-2-(1-adamantylamino)-4-(quinazolin-6-ylmethylene)-1H-imidazol-5-one]",> 50,,> 50,III (ratio between 0.5 and 2 fold),II (ratio between 2 and 10 fold),,,
"COC[C@H](NC1=N/C(=C\c2ccc3ncccc3n2)C(=O)N1)c1ccccc1 [Compound 71, (4Z)-2-[[(1R)-2-methoxy-1-phenyl-ethyl]amino]-4-(1,5-naphthyridin-2-ylmethylene)-1H-imidazol-5-one]",10 to 25,,> 50,IV (ratio between 0.1 and 0.5 fold),II (ratio between 2 and 10 fold),10 to 25,≤ 10,> 50
"COC[C@H](NC1=N/C(=C\c2ccc3nnccc3c2)C(=O)N1)c1ccccc1 [Compound 72, (4Z)-4-(cinnolin-6-ylmethylene)-2-[[(1R)-2-methoxy-1-phenyl-ethyl]amino]-1H-imidazol-5-one]",> 50,,> 50,III (ratio between 0.5 and 2 fold),III (ratio between 0.5 and 2 fold),,,
"COC[C@H](NC1=N/C(=C\c2ccc3cnncc3c2)C(=O)N1)c1ccccc1 [Compound 73, (4Z)-2-[[(1R)-2-methoxy-1-phenyl-ethyl]amino]-4-(phthalazin-6-ylmethylene)-1H-imidazol-5-one]",> 50,,> 50,III (ratio between 0.5 and 2 fold),III (ratio between 0.5 and 2 fold),,,
"O=C1NC(NC2CCCCC2)=N/C1=C\c1ccc2cnccc2c1 [Compound 75, (4Z)-2-(Cyclohexylamino)-4-(6-isoquinolylmethylene)-1H-imidazol-5-one]",> 50,,> 50,III (ratio between 0.5 and 2 fold),II (ratio between 2 and 10 fold),,,
"O=C1NC(NC2CCCCC2)=N/C1=C\c1ccc2ncncc2c1 [Compound 76, (4Z)-2-(cyclohexylamino)-4-(quinazolin-6-ylmethylene)-1H-imidazol-5-one]",> 50,,> 50,III (ratio between 0.5 and 2 fold),II (ratio between 2 and 10 fold),,,
"O=C1NC(NC2CCCCCC2)=N/C1=C\c1ccc2ncncc2c1 [Compound 77, (4Z)-2-(cycloheptylamino)-4-(quinazolin-6-ylmethylene)-1H-imidazol-5-one]",> 50,,> 50,II (ratio between 2 and 10 fold),II (ratio between 2 and 10 fold),,,
"COC[C@@H](CC(C)C)NC1=N/C(=C\c2ccc3ncncc3c2)C(=O)N1 [Compound 78, (4Z)-2-[[(1R)-1-(methoxymethyl)-3-methyl-butyl]amino]-4-(quinazolin-6-ylmethylene)-1H-imidazol-5-one]",> 50,,> 50,II (ratio between 2 and 10 fold),II (ratio between 2 and 10 fold),,,
"CN1C(=O)/C(=C/c2ccc3nccnc3c2)N=C1NC1CCCCC1 [Compound 82, (5Z)-2-(Cyclohexylamino)-3-methyl-5-(quinoxalin-6-ylmethylene)imidazol-4-one]",> 50,,> 50,III (ratio between 0.5 and 2 fold),III (ratio between 0.5 and 2 fold),,,
"CN1C(=O)/C(=C/c2ccc3nccnc3c2)N=C1NC1CCCCCC1 [Compound 83, (5Z)-2-(Cycloheptylamino)-3-methyl-5-(quinoxalin-6-ylmethylene)imidazol-4-one]",> 50,,> 50,III (ratio between 0.5 and 2 fold),III (ratio between 0.5 and 2 fold),,,
"CN1C(=O)/C(=C/c2ccc3ncccc3c2)N=C1NC1CCCCC1 [Compound 84, (5Z)-2-(Cyclohexylamino)-3-methyl-5-(quinolin-6-ylmethylene)imidazol-4-one]",> 50,,> 50,III (ratio between 0.5 and 2 fold),III (ratio between 0.5 and 2 fold),,,
"CN1C(=O)/C(=C/c2ccc3ncccc3c2)N=C1NC1CCCCCC1 [Compound 85, (5Z)-2-(Cycloheptylamino)-3-methyl-5-(quinolin-6-ylmethylene)imidazol-4-one]",> 50,,> 50,IV (ratio between 0.1 and 0.5 fold),III (ratio between 0.5 and 2 fold),,,
"CN1C(=O)/C(=C/c2ccc3cnccc3c2)N=C1NC1CCCCC1 [Compound 86, (5Z)-2-(Cyclohexylamino)-3-methyl-5-(isoquinolin-6-ylmethylene)imidazol-4-one]",> 50,,> 50,III (ratio between 0.5 and 2 fold),IV (ratio between 0.1 and 0.5 fold),,,
"CN1C(=O)/C(=C/c2ccc3ncncc3c2)N=C1NC1CCCCC1 [Compound 88, (5Z)-2-(Cyclohexylamino)-3-methyl-5-(quinazolin-6-ylmethylene)imidazol-4-one]",> 50,,> 50,III (ratio between 0.5 and 2 fold),III (ratio between 0.5 and 2 fold),,,
"CN1C(=O)/C(=C/c2ccc3ncncc3c2)N=C1NC1CCCCCC1 [Compound 89, (5Z)-2-(Cycloheptylamino)-3-methyl-5-(quinazolin-6-ylmethylene)imidazol-4-one]",> 50,,> 50,III (ratio between 0.5 and 2 fold),III (ratio between 0.5 and 2 fold),,,
